Where a name gives a salt, the structure may show the parent alone. Read-outs that look alike come from different tables or passages of the source.
Assays:
[1] = system: HER2; set-up: method as in library vendor description; settings: ref library vendor description; cited from earlier work
[2] = system: HER1; set-up: method as in library vendor description; settings: ref library vendor description; cited from earlier work
[3] = system: Toxoplasma gondii RH-2F tachyzoites; assay: microbe, parasite or virus in culture; settings: 72 h
[4] = system: RGS4; set-up: method as in vendor brief description; settings: ref vendor brief description; cited from earlier work
[5] = target: mGlu5 receptor; set-up: method as in vendor brief description; settings: ref vendor brief description; cited from earlier work
[6] = system: human neutrophil elastase; set-up: method as in vendor brief description; settings: ref vendor brief description; cited from earlier work
[7] = target: matriptase; set-up: method as in vendor brief description; settings: ref vendor brief description; cited from earlier work
[8] = system: proteasome; set-up: method as in vendor brief description; settings: ref vendor brief description; cited from earlier work
[9] = system: Cathepsin L2; set-up: method as in vendor brief description; settings: ref vendor brief description; cited from earlier work
[10] = system: Cathepsin L; set-up: method as in vendor brief description; settings: ref vendor brief description; cited from earlier work
[11] = system: Cathepsin B; set-up: method as in vendor brief description; settings: ref vendor brief description; cited from earlier work
[12] = system: Cathepsin S; set-up: method as in vendor brief description; settings: ref vendor brief description; cited from earlier work
[13] = system: Cathepsin K; set-up: method as in vendor brief description; settings: ref vendor brief description; cited from earlier work
[14] = target: HIV reverse transcriptase; set-up: method as in vendor brief description; settings: ref vendor brief description; cited from earlier work
[15] = system: PKCβ; set-up: method as in library vendor description; settings: ref library vendor description; cited from earlier work
[16] = system: PKCε; set-up: method as in library vendor description; settings: ref library vendor description; cited from earlier work
[17] = system: PKCγ; set-up: method as in library vendor description; settings: ref library vendor description; cited from earlier work
[18] = system: PKCα; set-up: method as in library vendor description; settings: ref library vendor description; cited from earlier work
[19] = system: Akt1; set-up: method as in vendor brief description; settings: ref vendor brief description; cited from earlier work
[20] = system: Akt3; set-up: method as in vendor brief description; settings: ref vendor brief description; cited from earlier work
[21] = system: GluR1 and GluR3; set-up: method as in vendor brief description; settings: ref vendor brief description; cited from earlier work
[22] = system: IKK-2; set-up: method as in vendor brief description; settings: ref vendor brief description; cited from earlier work
[23] = in vitro; settings: human, Host viability (%) mean
[24] = system: IKK complex; set-up: method as in vendor brief description; settings: ref vendor brief description; cited from earlier work
[25] = system: IKK-1; set-up: method as in vendor brief description; settings: ref vendor brief description; cited from earlier work
[26] = target: HIF-1α prolyl hydroxylase-2 (PHD2); set-up: method as in vendor brief description; settings: ref vendor brief description; cited from earlier work
[27] = system: FAAH; set-up: method as in vendor brief description; settings: rat; ref vendor brief description; cited from earlier work
[28] = system: FAAH; set-up: method as in vendor brief description; settings: human; ref vendor brief description; cited from earlier work
[29] = target: LPA2; set-up: method as in library vendor description; settings: ref library vendor description; cited from earlier work
[30] = target: LPA1; set-up: method as in library vendor description; settings: ref library vendor description; cited from earlier work
[31] = target: LPA3; set-up: method as in library vendor description; settings: ref library vendor description; cited from earlier work
[32] = target: LPA3; set-up: method as in vendor brief description; settings: ref vendor brief description; read-out: Ki LPA3-induced inositol phosphate production; cited from earlier work
[33] = target: LPA1; set-up: method as in vendor brief description; settings: ref vendor brief description; read-out: Ki LPA1-induced inositol phosphate production; cited from earlier work
[34] = system: NOD1; set-up: method as in vendor brief description; settings: ref vendor brief description; cited from earlier work
[35] = target: P2Y6 receptor; settings: read-out: IC50 P2Y6 receptor; ref vendor brief description; cited from earlier work
[36] = target: V1 receptor; set-up: method as in vendor brief description; settings: ref vendor brief description; cited from earlier work
[37] = target: V2 receptor; set-up: method as in vendor brief description; settings: ref vendor brief description; cited from earlier work
[38] = system: IGF-1R; set-up: method as in vendor brief description; settings: ref vendor brief description; cited from earlier work
[39] = system: FAK; set-up: method as in vendor brief description; settings: ref vendor brief description; cited from earlier work
[40] = system: Mdm2; set-up: method as in library vendor description; settings: ref library vendor description; cited from earlier work
[41] = system: PARP2; set-up: method as in library vendor description; settings: ref library vendor description; cited from earlier work
[42] = system: Fms; set-up: method as in vendor brief description; settings: ref vendor brief description; cited from earlier work
[43] = system: ChK2; set-up: method as in vendor brief description; settings: ref vendor brief description; cited from earlier work
[44] = system: VEGFR-2; set-up: method as in vendor brief description; settings: ref vendor brief description; cited from earlier work
[45] = system: Yes; set-up: method as in vendor brief description; settings: ref vendor brief description; cited from earlier work
[46] = target: 5-HT4a; set-up: method as in vendor brief description; settings: ref vendor brief description; cited from earlier work
[47] = target: 5-HT4b; set-up: method as in vendor brief description; settings: ref vendor brief description; cited from earlier work
[48] = target: DNA methyltransferase; set-up: method as in vendor brief description; settings: ref vendor brief description; cited from earlier work
[49] = system: AhR; settings: cited from earlier work
[50] = system: GSK3; set-up: method as in vendor brief description; settings: ref vendor brief description; cited from earlier work
[51] = system: CA XII; set-up: method as in vendor brief description; settings: ref vendor brief description; cited from earlier work
[52] = system: CA IX; set-up: method as in vendor brief description; settings: ref vendor brief description; cited from earlier work
[53] = system: mGlu4; set-up: method as in vendor brief description; settings: ref vendor brief description; cited from earlier work
[54] = system: VEGFR1; set-up: method as in vendor brief description; settings: ref vendor brief description; cited from earlier work
[55] = system: Abl; set-up: method as in vendor brief description; settings: ref vendor brief description; read-out: IC50 Abl; cited from earlier work
[56] = system: Src; set-up: method as in vendor brief description; settings: ref vendor brief description; cited from earlier work
[57] = read-out: Parasite inhibition (%) mean, preliminary screen, mean
[58] = read-out: Parasite inhibition (%) mean, preliminary screen of compound library, mean

Cc1c(NC(=O)OC[C@@H]2COCCN2)cn2ncnc(Nc3ccc4c(cnn4Cc4cccc(F)c4)c3)c12 [BMS-599626 (AC480)]
IC50 [1]: 30 nM | IC50 [2]: 20 nM | inhibition of growth at 5 µM [3, 57]: 39.6%

Cc1ccc(-n2sc(=O)n(Cc3ccc(F)cc3)c2=O)cc1 [CCG 50014]
inhibition of growth at 5 µM [3, 58]: 1.4% | IC50 [4]: 30 nM

Cc1nc(C#Cc2ccnc(Cl)c2)c(C)n1-c1ccc(OC(F)(F)F)cc1 [CTEP]
inhibition of growth at 5 µM [3, 58]: 2.4% | IC50 [5]: 2.2 nM

CN(C)C(=O)COC(=O)Cc1ccc(OC(=O)c2ccc(NC(=N)N)cc2)cc1 [Camostat Mesilate (FOY-305)]
IC50 [6]: 200 nM | IC50 [7]: 500 nM | inhibition of growth at 5 µM [3, 58]: 2.5%

CC(C)C[C@H](NC(=O)[C@H](CCc1ccccc1)NC(=O)CN1CCOCC1)C(=O)N[C@@H](Cc1ccccc1)C(=O)N[C@@H](CC(C)C)C(=O)[C@@]1(C)CO1 [Carfilzomib (PR-171)]
IC50 [8]: < 5 nM | inhibition of growth at 5 µM [3, 58]: -3.5%

Cn1nc(C(C)(C)C)cc1C(=O)N[C@@H](Cc1cccc(Cl)c1)C(=O)NCC#N [Cathepsin Inhibitor 1]
pIC50 Cathepsin L2 [9]: 6.7 | pIC50 Cathepsin L [10]: 7.9 | pIC50 Cathepsin B [11]: 5.2 | inhibition of growth at 5 µM [3, 58]: 21.5% | pIC50 Cathepsin S [12]: 6.0 | pIC50 Cathepsin K [13]: 5.5

Cc1cc(C)c(Nc2ccnc(Nc3ccc(C#N)cc3)n2)c(C)c1 [Dapivirine]
IC50 [14]: 24 nM | inhibition of growth at 5 µM [3, 58]: 0.8%

Cn1cc(C2=C(c3cn(C4CCN(Cc5ccccn5)CC4)c4ccccc34)C(=O)NC2=O)c2ccccc21 [Enzastaurin (LY317615)]
IC50 [15]: 6 nM | IC50 [16]: […] | inhibition of growth at 5 µM [3, 57]: 11.4% | IC50 [17]: […] | IC50 [18]: […]

CC(C)NC[C@@H](C(=O)N1CCN(c2ncnc3c2[C@H](C)C[C@H]3O)CC1)c1ccc(Cl)cc1 [GDC-0068]
IC50 [19]: […] | IC50 [20]: […] | inhibition of growth at 5 µM [3, 58]: 35.4%

NCCCCCNCC12CC3CC(CC(C3)C1)C2 [IEM 1754 dihydrobroMide]
inhibition of growth at 5 µM [3, 58]: 15.8% | IC50 [21]: 6 µM

O=C(c1ccc(Nc2nccc(-c3cc4ccccc4s3)n2)cc1)N1CCC(N2CCCC2)CC1 [IKK-16]
IC50 [22]: 40 nM | viability at 72 h [23]: 10.7% | IC50 [24]: 70 nM | inhibition of growth at 5 µM [3, 58]: 99.8% | IC50 [25]: 200 nM

O=C(O)CNC(=O)c1c(O)c2ccccc2n(Cc2ccccc2)c1=O [IOX2]
inhibition of growth at 5 µM [3, 58]: 32.8% | IC50 [26]: 21 nM

O=C(Nc1ccccc1)N1CCN(c2nc(-c3ccccc3)ns2)CC1 [JNJ 1661010]
IC50 [27]: 10 nM | inhibition of growth at 5 µM [3, 58]: 10.5% | IC50 [28]: 12 nM

Cc1noc(-c2ccc(CSCCC(=O)O)cc2)c1NC(=O)OC(C)c1ccccc1Cl (stereo not drawn) [Ki16425]
Ki [29]: 6.5 µM | Ki [30]: 340 nM | Ki [31]: 930 nM | Ki [32]: 930 nM | inhibition of growth at 5 µM [3, 57]: -25.5% | Ki [33]: 340 nM

Cc1ccc(S(=O)(=O)n2c(N)nc3ccccc32)cc1 [ML130]
inhibition of growth at 5 µM [3, 58]: 3.3% | IC50 [34]: 560 nM

S=C=Nc1cccc(NC(=S)NCCCCNC(=S)Nc2cccc(N=C=S)c2)c1 [MRS 2578]
inhibition of growth at 5 µM [3, 58]: 0.2% | IC50 [35]: 37 nM

Cc1ccccc1C(=O)Nc1ccc(C(=O)N2CCCC(N(C)C)c3ccccc32)cc1 (stereo not drawn) [Mozavaptan]
IC50 [36]: 1200 nM | inhibition of growth at 5 µM [3, 58]: 3.1% | IC50 [37]: 14 nM

CNC(=O)c1ccccc1Nc1nc(Nc2ccc(N3CCOCC3)cc2OC)ncc1Cl [NVP-TAE226]
IC50 [38]: […] | inhibition of growth at 5 µM [3, 58]: 66.8% | IC50 [39]: 5.5 nM

COc1ccc(C2=N[C@@H](c3ccc(Cl)cc3)[C@@H](c3ccc(Cl)cc3)N2C(=O)N2CCNC(=O)C2)c(OC(C)C)c1 [Nutlin-3]
IC50 [40]: […] | inhibition of growth at 5 µM [3, 57]: -1.5%

O=C(c1cc(Cc2n[nH]c(=O)c3ccccc23)ccc1F)N1CCN(C(=O)C2CC2)CC1 [Olaparib (AZD2281)]
IC50 [41]: 1 nM | inhibition of growth at 5 µM ([3]; read-out: Parasite inhibition (%) mean): 28.2%

Cn1cc(-c2[nH]c3cc(NC(=O)[C@H](N)C4CCCCC4)cc4c3c2C=NNC4=O)cn1 [PF 477736]
IC50 [42]: 10 nM | IC50 [43]: 47 nM | inhibition of growth at 5 µM [3, 58]: -0.5% | IC50 [44]: 8 nM | IC50 [45]: 14 nM

COCCCN1CCC(NC(=O)c2cc(Cl)c(N)c3c2OCC3)CC1 [Prucalopride]
inhibition of growth at 5 µM [3, 58]: -7.6% | Ki [46]: 2.5 nM | Ki [47]: 8 nM

O=C(O)[C@H](Cc1c[nH]c2ccccc12)N1C(=O)c2ccccc2C1=O [RG108]
IC50 [48]: 115 nM | inhibition of growth at 5 µM [3, 58]: 2.5%

CC(C)n1cnc2c(NCCc3ccc(O)cc3)nc(-c3csc4ccccc34)nc21 [StemRegenin 1]
IC50 [49]: 127 nM | inhibition of growth at 5 µM [3, 58]: 0.2%

O=c1sn(-c2cccc3ccccc23)c(=O)n1Cc1ccccc1 [Tideglusib]
inhibition of growth at 5 µM [3, 58]: 52.8% | IC50 [50]: […]

NS(=O)(=O)c1ccc(NC(=O)Nc2ccc(F)cc2)cc1 [U-104]
IC50 [51]: […] | inhibition of growth at 5 µM [3, 58]: 5% | IC50 [52]: […]

O=C(Nc1cccc(Cl)c1)c1ccccn1 [VU 0364770]
EC50 [53]: 1100 nM | inhibition of growth at 5 µM [3, 58]: 1.8%

COc1cc2ncnc(Nc3ccc(Cl)cc3F)c2cc1OC [ZM 306416]
viability at 72 h ([23]; preliminary screen of compound library, mean): 76.6% | inhibition of growth at 5 µM [3, 58]: 70.2% | IC50 [54]: […] | IC50 [55]: 1300 nM | IC50 [56]: […]
